Data set [1] addresses T1, recombinant full-length HSET (Homo sapiens, UniProt Q9BW19).
T1 construct: 5 nM full-length human N-terminal His-tag HSET; His-tag (N)
T1 sequence (Q9BW19 1-673): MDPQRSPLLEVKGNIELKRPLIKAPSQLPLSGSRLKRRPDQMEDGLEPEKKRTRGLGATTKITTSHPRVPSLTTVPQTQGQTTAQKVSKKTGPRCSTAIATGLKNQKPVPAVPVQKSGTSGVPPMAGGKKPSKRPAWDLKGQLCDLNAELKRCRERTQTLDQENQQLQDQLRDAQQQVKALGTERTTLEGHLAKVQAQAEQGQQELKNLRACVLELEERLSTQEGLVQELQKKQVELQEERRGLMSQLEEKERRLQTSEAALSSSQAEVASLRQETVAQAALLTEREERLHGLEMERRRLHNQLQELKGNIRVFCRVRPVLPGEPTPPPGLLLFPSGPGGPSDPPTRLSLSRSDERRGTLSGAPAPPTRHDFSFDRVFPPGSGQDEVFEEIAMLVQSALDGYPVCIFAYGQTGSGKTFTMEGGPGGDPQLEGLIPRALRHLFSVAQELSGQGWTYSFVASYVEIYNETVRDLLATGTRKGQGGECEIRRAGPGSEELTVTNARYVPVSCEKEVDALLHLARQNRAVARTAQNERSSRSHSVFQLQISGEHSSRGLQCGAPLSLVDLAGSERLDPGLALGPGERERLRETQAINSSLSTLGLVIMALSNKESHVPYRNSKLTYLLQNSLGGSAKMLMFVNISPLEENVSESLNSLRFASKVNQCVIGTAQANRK
The data set is described as follows: ADP-Glo HSET assay (3 μM ATP), microtubule-stimulated ATPase. The class given is biochemical. The note with it: preformed microtubules, 3 μM ATP; mean (±SD) n ≥ 3 (37 n = 2, 38 single determination) (Table 3); read-out: HSET ADP-Glo IC50. The protocol: The HSET or Eg5 ATPase activity was measured using the ADP-Glo Kinase Assay kit (Promega, V9102). The assays were run using final concentrations of 5 nM full-length human N-terminal His-tag HSET or 4 nM GST-tagged Eg5 motor domain protein (Cytoskeleton, EG01) and an assay buffer containing 20 mM HEPES pH 6.8, 10 mM MgCl2, 0.25 mM EGTA, 0.4 mM Triton X-100, and 1 mM DTT. Preformed microtubules (Universal Biologicals Cambridge, bovine MT001-XL, or porcine MT002-XL), which were reconstituted in 15 mM PIPES pH 7, 1 mM MgCl2, and 20 μM paclitaxel, were present at a final assay concentration of 70 μg/mL. A reaction volume of 5 μL was used in Proxiplate 384 plus white assay plates (PerkinElmer, 6008280). To measure compound inhibition, 100 nL of compound dissolved in DMSO or DMSO alone was preincubated with the HSET and microtubules for 10 min before 3 μM Ultra-Pure ATP was added to start the ATPase reaction for the 3 μM ATP HSET assay. For the 500 μM ATP HSET assay, the addition of 500 μM Ultra-Pure ATP was used. For the Eg5 ATPase assay, 4.8 μM Ultra-Pure ATP was used. All reactions were incubated at 25 °C for 80 min and then stopped by the addition of 5 μL of the ADP-Glo reagent. 10 μL of Kinase Detection Reagent was then added after a further 45 min of incubation. The luminescence was read after 45 min on a PheraStar FSX plate reader (BMG Labtech). The data processing was performed using Dotmatics Studies software package. Percentage inhibition was determined based on normalization to high controls (0% inhibition, all reagents with 100 nL of DMSO alone) and low controls (100% inhibition […], without HSET). The IC50 values for each compound were determined using a four-parameter logistic curve fit of % inhibition versus concentration.

Data set [2] can be described thus: Kinetic aqueous solubility (KSol), HPLC-UV. The class given is physicochemical. Conditions: PBS buffer pH 7.4, 100 μM solution with 1% DMSO, HPLC with UV detection.
Another data set deals with T2, HSET in DLD1 4N cells (Homo sapiens, UniProt Q9BW19).
T2 construct: overlapped with the signal from the antibody-probed endogenous HSET protein; endogenous in cells; host or cells: DLD1 4N cells
T2 sequence (Q9BW19 1-673): T1 sequence (Q9BW19 1-673)
The data set is described as follows: Click probe localization target engagement imaging in DLD1 4N cells. It is filed as cell-based. The note with it: DLD1 4N cells treated with 40. The method, then: (§1) The Cy-5 tetrazine dye selected for this experiment is not cell-permeable, thus fixation and permeabilization of cells were necessary prior to its addition. Experiments were conducted in DLD1 4N cells and, as a negative control, isogenic 2N DLD1 HSET KO cells in which HSET expression was prevented by the disruption of the HSET gene using CRISPR. Cells were treated first with proTAME for 2 h to accumulate mitotic events, followed by treatment with the TCO probe 40 for 45 min. The live cells were then fixed and permeabilized before treatment with the tetrazine-Cy5 dye and incubation to allow the IEDDA reaction to occur. Additionally, the cells were stained for the endogenous HSET protein using indirect immunofluorescence and imaged to observe the fluorescence from both the TCO probe and antibody-labeled HSET. […] A 3 μM concentration of the probe 40 gave an acceptable signal-to-noise ratio of around 2:1. Even under these optimal conditions, some residual uniform cytoplasmic Cy5 signal was observed within the cells. However, a clear Cy5 decoration of the mitotic spindle was seen, which overlapped with the signal from the antibody-probed endogenous HSET protein (Figures 2A and S6). […] We observed a 14–17-fold increase in signal in DLD1 4N cells treated with 40 relative to tetrazine-Cy5 alone. […] Comparing the intensity of click probe labeling coincident with the mitotic spindle in DLD1 4N cells to that in DLD1 HSET KO cells after both were treated with 40, we observed a twofold higher signal in the former.
(§2) Direct target engagement of active inhibitor 36 was measured by calculating its capacity to displace the TCO-containing probe 40. 4N DLD1 cells and DLD1 HSET KO cells (negative control) were plated in 96-well ibidi μ-Clear plates (IB-89626, ibidi). Cells were first treated for 2 h with 8 μM pro-TAME (I-440–01M, R&D system) to accumulate mitotic cells and were then treated with 8 μM MG-132 (S2619, SelleckChem) and 3 μM 40, alone or together with active inhibitor 36 in DMEM media with 1% FBS for 45 min. Cells were then washed three times in DMEM, with the second wash being incubated for 10 min to ensure the optimal reduction of unspecific compound binding. After an additional PBS wash, cells were then fixed in 4% PFA/PBS (15670799, Thermo Scientific) prior to incubation with 400 nM tetraszine-Cy5 (CLK-015-05, Jena Biosciences) in 1.5% FBS/PBS for 10 min at room temperature. Cells were permeabilized by the addition of 0.5% TritonX-100/PBS for 5 min before being stained overnight for Pericentrin (1:1500 ab28144 mouse anti-PCNT, Abcam) and KIFC1 (1:1500 12313S rabbit anti-KIFC1, Cell Signaling Technologies). Secondary antibodies Alexa Fluor 488 donkey antirabbit and Alexa Fluor 555 donkey antimouse (1:1500, A21206 and A31570, respectively, Life Technologies) were added together with 1 μg/mL DAPI (D9542, Sigma) in 1.5% FBS in PBS.
(§3) Plates were imaged at 40× using a Zeiss LSM980 confocal microscope with Airyscan 2. The subsequent analysis and quantification were performed using 3D image segmentation with the Arivis4D software. Mitotic cells were segmented by selecting for the highest density (integrated DAPI intensity/total volume), and the mitotic pole areas were segmented using the Pericentrin signal. The signal of the click probe (Cy5) and total KIFC1 (FITC) was measured on the mitotic pole area, and both were normalized to the control condition containing 40 probe alone. The ratio of probe per target (click probe pole integrated intensity signal/KIFC1 pole integrated intensity signal) was used to calculate the occupancy of the probe in the target protein and normalized to the control condition containing 40 probe alone (n > 100 for each replicate, two replicates per concentration point).

Another data set has as its system DLD1 HSET KO cells. Kind of data set: Click probe localization imaging in DLD1 HSET KO cells (negative control). It is filed as cell-based, human. The note with it: HSET nonexpressing (DLD1 HSET KO) cells. The protocol:
as §1, §2, §3

Structures are written as SMILES.

Take `CCCOC(=O)c1sc(NC(=O)C[C@@H](CCCNC)NC(=O)c2cccc(-c3noc(C)n3)c2)nc1C` [Compound 34, Propyl (R)-4-Methyl-2-(3-(3-(5-methyl-1,2,4-oxadiazol-3-yl)benzamido)-6-(methylamino)hexanamido)thiazole-5-carboxylate]: the half-maximal inhibitory concentration (IC50) in data set [1] is 260 nM. The KSol data in data set [2] is greater than 90 µM.

For `CCCOC(=O)c1sc(NC(=O)C[C@H](CCCN)NC(=O)c2cccc(-c3noc(C)n3)c2)nc1C` [Compound 33, Propyl (S)-2-(6-Amino-3-(3-(5-methyl-1,2,4-oxadiazol-3-yl)benzamido)hexanamido)-4-methylthiazole-5-carboxylate], in data set [1], the IC50 turned out to be 13 nM. The KSol data in data set [2] is greater than 90 µM.

As for `CCCOC(=O)c1sc(NC(=O)C[C@H](CCCN(C)CCOCCOCCNC(=O)O[C@@H]2CC/C=C/CCC2)NC(=O)c2cccc(-c3noc(C)n3)c2)nc1C` [Compound 39, Propyl 2-((S)-1-(((S,E)-Cyclooct-4-en-1-yl)oxy)-11-methyl-15-(3-(5-methyl-1,2,4-oxadiazol-3-yl)benzamido)-1-oxo-5,8-dioxa-2,11-diazaheptadecan-17-amido)-4-methylthiazole-5-carboxylate], in data set [1], the IC50 amounted to 107 nM. Further, in data set [2], the KSol data is 53 µM.

In the case of `CCCOC(=O)c1sc(NC(=O)C[C@H](CCCN(C)CC#CCNC(=O)O[C@@H]2CC/C=C/CCC2)NC(=O)c2cccc(-c3noc(C)n3)c2)nc1C` [Compound 40, propyl 2-((S)-6-((4-(((((S,E)-Cyclooct-4-en-1-yl)oxy)carbonyl)amino)but-2-yn-1-yl)(methyl)amino)-3-(3-(5-methyl-1,2,4-oxadiazol-3-yl)benzamido)hexanamido)-4-methylthiazole-5-carboxylate], the concentration for half-maximal inhibition (IC50) in data set [1] was found to be 39 nM. In data set [2], the KSol data is 1.1 µM. Moreover, the “fold increase in signal relative to tetrazine-Cy5 alone” value on HSET in DLD1 4N cells was 14–17 fold; with DLD1 HSET KO cells, 7–8 fold.

The values are drawn from publication PMC9969401, “Discovery of 2-(3-Benzamidopropanamido)thiazole-5-carboxylate Inhibitors of the Kinesin HSET (KIFC1) and the Development of Cellular Target Engagement Probes” (Journal of Medicinal Chemistry, 2023).
